Experimental data as given in publication PMC8916850, “Preparation of Spice Extracts: Evaluation of Their Phytochemical, Antioxidant, Antityrosinase, and Anti-α-Glucosidase Properties Exploring Their Mechanism of Enzyme Inhibition with Antibrowning and Antidiabetic Studies In Vivo” (BioMed Research International, 2022).

Biological target: T1, Mushroom tyrosinase
T1 construct: gene PPO1
Assay: dopachrome formation, absorbance at […] nm
Type: biochemical
Conditions: L-DOPA 0.85 mM, phosphate buffer 20 mM pH 6.8, 37 °C; 10 min preincubation; methods name kojic acid as the standard, table and text name hydroquinone

Oc1ccc(O)cc1 [hydroquinone]
MeOH: 131.34 ± 9.82 µg/mL
